According to patent publication US10941157B2, “Pesticidal compositions and uses thereof” (Gilead Apollo, LLC, priority 2015, dated 2021):
In brackets after ≈: the same amount, converted by molar mass. Where two headings read alike, the source gives them in different places.

What was measured:
[1] = test system: Rhizoctonia solani; experiment: Seed protectant for soybean seedling disease, R. solani; assay type: in vivo; settings: soybean from treated seeds, 0.025 mg/seed, R. solani inoculated; for Plant Weight: fresh weight at 14 days; for Improvement in plant weight: percentage of non-inoculated non-treated controls
Method: The pathogen of Rhizoctonia solani inoculum was grown on sterile sorghum; and the pathogen of Pythium ultimum inoculum was grown on white millet.
Soybean seeds (Glycine max cv. AG4832) were planted in 2.5-inch square pots containing Berger BM2 germination mix amended with fertilizer (e.g., 14-14-14). Pots with soil were inoculated with the pathogen of R. solani or P. ultimum at time of planting. A hole was pressed into the soil to a depth of about 2 to 3 cm; the inoculum was added to the hole, followed by the seed which was then covered with soil. Two seeds per pot were planted. Plants were grown in a growth chamber at conditions of 20 to 24° C., 14 hour light cycle, 500 uM of light, and 65% humidity. The pots inoculated with P. ultimum were sub-irrigated every day; and the pots inoculated with R. solani were sub-irrigated every other day.
Seedling emergence was captured at 7 and 14 days after seeding. At 14 days, the top of the plant was removed and fresh weight was recorded. The plant weights from the seeds treated with test compounds (e.g., in formulations) were compared to the ones either from the inoculated non-treated seeds or non-inoculated non-treated seeds. Table 10 lists the results of the R. solani control in soybean upon seed treatment with test compounds, and Table 11 lists the results of the P. ultimum control in soybean upon seed treatment with test compounds, respectively.

[2] = test system: Puccinia triticina; experiment: Foliar protection test for wheat leaf rust control; assay type: in vivo; settings: foliar application to wheat (Triticum aestivum cv. Winterhawk), evaluated 10 days later
[3] = test system: Fusarium graminearum; assay type: in vivo; settings: corn from treated seeds, 0.025 mg/seed, F. graminearum inoculated
[4] = test system: Sphaerotheca fuliginea; experiment: Foliar protection for cucumber powdery mildew control; assay type: in vivo; settings: foliar spray on Cucumis sativus cv. Straight Eight, inoculated 24 hours after treatment, evaluated 7 days later
How it was run: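 Protective foliar spray on 10-day-old Straight Eight cucumbers, with S. fuliginea spores dusted from infected stock plants 24 h after treatment. Disease developed at 23–27 °C, 60% RH and a 16 h photoperiod. Leaves were rated for mildew growth after 7 days; test rates 10 ppm or below.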

[5] = test system: Phakopsora pachyrhizi; experiment: Foliar protection test for Asian soybean rust control; assay type: in vivo; settings: foliar application to soybean (Glycine max AG4832), percent disease area evaluated 14 days later
[6] = test system: Septoria tritici (St); experiment: In vitro pathogen growth inhibition assay, St; assay type: cell-based; settings: Zymoseptoria tritici, 48 h
How it was run: (§1)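 Value reported is the compound concentration reaching ≥90% growth inhibition, from OD readings at 24 and 48 h after blank subtraction, confirmed visually. Inoculum was spores diluted in 17% V8 medium, except Rs, using 1.5 mm mycelial plugs in ¼ PDB; actual compound concentration corrected via OD600.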

[7] = test system: Botrtyis cinerea (Bc); experiment: In vitro pathogen growth inhibition assay, Bc; assay type: cell-based; settings: 48 h
How it was run: as §1

[8] = test system: Blumeria graminis f. sp. hordei; experiment: Early foliar disease control via seed treatment (barley powdery mildew); assay type: in vivo; settings: seed treatment rate 0.025 mg/seed; barley inoculated 7 days after planting, evaluated 7 days later
Method: Barley seeds (Hordeum vulgare cv. Perry or Conlon) were treated with a test compound dissolved in pure acetone, in which the acetone solution (1 mL) was used per 50 seeds in glass jars in a fume hood. The seeds were swirled in the glass jars by hand until no obvious presence of acetone remained and the seeds were mostly dry. Plants were grown for 7 days in 2-inch square pots containing Metromix 200 medium amended with fertilizer. […] After inoculation with the pathogen of Blumeria graminis f. sp. hordei, plants were kept at conditions of 20 to 22° C., 200 uM of light, 70% humidity to facilitate infection and disease development. At 7 days after planting (1st true leaf fully expanded), the plants were moved to the cooler chamber and inoculated by shaking well-colonized, untreated stock plants above the treated material. […] Efficacy was evaluated in 7 days later by examining leaves for colonization and growth of powdery mildew. Each side of each leaf was assigned a severity rating of 0, 1, 5, 10, 25, 50, 75, or 100 percent diseased area. Table 14 lists the results of barley powdery mildew control upon seed treatment with test compounds.

[9] = ≥90% growth inhibition, 48 hours, vs 2% DMSO control, read-out: Compound Concentration (ppm) sufficient for ≥90% inhibition of St
[10] = ≥90% growth inhibition, 48 hours, vs 2% DMSO control, read-out: Compound Concentration (ppm) sufficient for ≥90% inhibition of Bc

Row | SMILES | Plant Weight [1] | Improvement in plant weight [1] | Wheat Leaf Rust Control at a compound concentration of 10 ppm or lower [2] | Plant Height ([3]; Table 12) | Plant Height ([3]; Table 13) | Cucumber Powdery Mildew Control at a compound concentration of 10 ppm or lower [4] | Asian Soybean Rust Control at a compound concentration of 25 ppm or lower [5] | IC90 ([6]; ≥90% inhibition, 48 hours vs 2% DMSO control, read-out: Compound Concentration (ppm) sufficient for ≥90% inhibition of growth, St) | IC90 ([7]; ≥90% inhibition, 48 hours vs 2% DMSO control, read-out: Compound Concentration (ppm) sufficient for ≥90% inhibition of growth, Bc) | Barley Powdery Mildew Reduction (%) [8] | IC90 [6, 9] | IC90 [7, 10]
1 | COc1ccc(F)cc1[C@H](Cn1c(=O)n(C(C)(C)C(=O)NC(C)C)c(=O)c2c(C)c(-n3nccn3)sc21)OCCC#N [Compound I-095, (R)-2-(1-(2-(2-cyanoethoxy)-2-(5-fluoro-2-methoxyphenyl)ethyl)-5-methyl-2,4-dioxo-6-(2H-1,2,3-triazol-2-yl)-1,4-dihydrothieno[2,3-d]pyrimidin-3 (2H)-yl)-N-isopropyl-2-methylpropanamide] | 7.54 g | 93.9% | AA (≥85% control of wheat leaf rust) | 39.41 cm | 43.97 cm | AA (≥85% control of cucumber powdery mildew) | AA (≥85% control of Asian soybean rust) | > 50 µg/mL | 0.4 µg/mL (≈ 0.669 µM) |  |  | 
2 | COc1ccccc1[C@H](Cn1c(=O)n(C(C)(C)C(=O)NC(C)C)c(=O)c2c(C)c(-n3nccn3)sc21)OCCC#N [Compound I-193, (R)-2-(1-(2-(2-cyanoethoxy)-2-(2-methoxyphenyl)ethyl)-5-methyl-2,4-dioxo-6-(2H-1,2,3-triazol-2-yl)-1,4-dihydrothieno[2,3-d]pyrimidin-3 (2H)-yl)-N-isopropyl-2-methylpropanamide] | 6.83 g | 85.0% | AA (≥85% control of wheat leaf rust) |  | 40.66 cm | AA (≥85% control of cucumber powdery mildew) | AA (≥85% control of Asian soybean rust) |  |  | 96% | ≥ 2 µg/mL | ≥ 0.08 µg/mL
3 | COc1ccc(F)cc1[C@H](Cn1c(=O)n(C(C)(C)C(=O)NC(C)C)c(=O)c2c(C)c(-n3cccn3)sc21)OCCC#N [Compound I-191, (R)-2-(1-(2-(2-cyanoethoxy)-2-(5-fluoro-2-methoxyphenyl)ethyl)-5-methyl-2,4-dioxo-6-(1H-pyrazol-1-yl)-1,4-dihydrothieno[2,3-d]pyrimidin-3 (2H)-yl)-N-isopropyl-2-methylpropanamide] | 6.39 g | 79.6% | AA (≥85% control of wheat leaf rust) | 35.50 cm |  | AA (≥85% control of cucumber powdery mildew) | A (from 70% to 84% control of Asian soybean rust) |  |  | 94% | ≥ 10 µg/mL | 0.4 µg/mL (≈ 0.67 µM)
